Reference: patent publication US9321776B2, “Isochromene derivatives as phoshoinositide 3-kinases inhibitors” (CHIESI FARMACEUTICI S.p.A., priority 2013, dated 2016)
Structures can show the parent of a compound that is named as a salt.

How the values were obtained:
Assay in all cases: PI3K enzyme inhibitory activity in the cell free assay (ADP-Glo Kinase Assay)
Format in all cases: biochemical
[1] = target: T1, PI3Kβ (Homo sapiens, UniProt P42338); conditions: human recombinant PI3Kβ, ATP 100 μM; read-out: PI3K beta inhibition
T1 construct: purchased Millipore Ltd (Billerica, Mass.)

[2] = target: T2, PI3Kγ (Homo sapiens, UniProt P48736); conditions: human recombinant PI3Kγ, ATP 30 μM; read-out: PI3K gamma inhibition
T2 construct: purchased Millipore Ltd (Billerica, Mass.)

[3] = target: T3, PI3Kδ (Homo sapiens, UniProt O00329); conditions: human recombinant PI3Kδ, ATP 80 μM; read-out: PI3K delta inhibition
T3 construct: purchased Millipore Ltd (Billerica, Mass.)
T3 sequence (O00329 1-1044): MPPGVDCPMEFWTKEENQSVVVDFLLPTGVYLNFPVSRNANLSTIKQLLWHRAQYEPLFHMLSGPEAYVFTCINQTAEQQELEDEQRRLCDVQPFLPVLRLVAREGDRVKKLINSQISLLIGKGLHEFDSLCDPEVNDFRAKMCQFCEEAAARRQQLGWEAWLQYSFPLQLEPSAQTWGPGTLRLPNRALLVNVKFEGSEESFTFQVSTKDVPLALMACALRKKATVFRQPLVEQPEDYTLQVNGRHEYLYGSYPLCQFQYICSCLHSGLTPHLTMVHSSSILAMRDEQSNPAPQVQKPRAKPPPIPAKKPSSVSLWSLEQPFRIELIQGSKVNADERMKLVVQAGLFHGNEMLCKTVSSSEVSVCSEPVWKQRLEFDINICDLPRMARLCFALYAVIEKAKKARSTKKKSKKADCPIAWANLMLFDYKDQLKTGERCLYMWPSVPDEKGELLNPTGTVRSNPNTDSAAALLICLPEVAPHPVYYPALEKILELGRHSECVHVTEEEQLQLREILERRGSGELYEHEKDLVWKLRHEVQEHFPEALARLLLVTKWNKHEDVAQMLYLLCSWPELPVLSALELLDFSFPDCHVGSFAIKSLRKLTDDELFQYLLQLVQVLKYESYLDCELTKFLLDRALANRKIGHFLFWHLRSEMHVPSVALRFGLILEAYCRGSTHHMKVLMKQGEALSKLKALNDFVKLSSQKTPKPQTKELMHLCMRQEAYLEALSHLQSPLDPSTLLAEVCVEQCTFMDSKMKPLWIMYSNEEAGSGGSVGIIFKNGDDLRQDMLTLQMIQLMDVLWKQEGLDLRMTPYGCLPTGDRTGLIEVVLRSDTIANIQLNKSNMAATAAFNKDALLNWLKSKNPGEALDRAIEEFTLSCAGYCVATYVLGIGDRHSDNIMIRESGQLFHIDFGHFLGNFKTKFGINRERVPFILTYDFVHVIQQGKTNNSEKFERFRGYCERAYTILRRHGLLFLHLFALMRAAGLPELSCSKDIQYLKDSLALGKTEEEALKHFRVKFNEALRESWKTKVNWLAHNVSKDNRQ

T2 sequence (P48736 whole entry): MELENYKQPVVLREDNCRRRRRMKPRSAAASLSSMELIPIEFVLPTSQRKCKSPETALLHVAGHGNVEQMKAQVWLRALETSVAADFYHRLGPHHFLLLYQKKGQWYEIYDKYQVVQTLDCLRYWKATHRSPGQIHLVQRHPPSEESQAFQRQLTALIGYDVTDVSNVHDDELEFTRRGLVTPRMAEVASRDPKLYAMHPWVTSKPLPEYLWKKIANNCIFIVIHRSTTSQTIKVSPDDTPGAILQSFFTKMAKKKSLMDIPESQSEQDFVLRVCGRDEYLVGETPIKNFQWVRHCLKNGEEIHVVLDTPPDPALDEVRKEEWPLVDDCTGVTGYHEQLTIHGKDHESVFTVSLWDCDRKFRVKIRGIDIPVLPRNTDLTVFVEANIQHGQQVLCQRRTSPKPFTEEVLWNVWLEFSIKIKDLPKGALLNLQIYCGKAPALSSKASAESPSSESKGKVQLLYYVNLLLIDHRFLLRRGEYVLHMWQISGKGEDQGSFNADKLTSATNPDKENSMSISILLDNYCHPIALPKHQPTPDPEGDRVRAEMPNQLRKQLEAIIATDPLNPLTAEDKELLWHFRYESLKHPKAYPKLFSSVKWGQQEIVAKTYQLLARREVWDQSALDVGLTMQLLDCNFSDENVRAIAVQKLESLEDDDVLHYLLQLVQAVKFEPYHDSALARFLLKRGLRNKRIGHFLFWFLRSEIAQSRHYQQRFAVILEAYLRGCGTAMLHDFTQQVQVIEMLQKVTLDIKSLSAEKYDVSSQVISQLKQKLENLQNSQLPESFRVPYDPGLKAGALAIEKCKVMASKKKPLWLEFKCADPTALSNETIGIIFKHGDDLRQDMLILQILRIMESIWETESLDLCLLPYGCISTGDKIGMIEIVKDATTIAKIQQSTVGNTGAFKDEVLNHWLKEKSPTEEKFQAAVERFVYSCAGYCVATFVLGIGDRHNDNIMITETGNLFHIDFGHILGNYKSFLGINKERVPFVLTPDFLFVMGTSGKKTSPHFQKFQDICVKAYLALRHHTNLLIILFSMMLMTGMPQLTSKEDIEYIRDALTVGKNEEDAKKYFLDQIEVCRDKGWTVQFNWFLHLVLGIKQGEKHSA
T1 sequence (P42338 whole entry): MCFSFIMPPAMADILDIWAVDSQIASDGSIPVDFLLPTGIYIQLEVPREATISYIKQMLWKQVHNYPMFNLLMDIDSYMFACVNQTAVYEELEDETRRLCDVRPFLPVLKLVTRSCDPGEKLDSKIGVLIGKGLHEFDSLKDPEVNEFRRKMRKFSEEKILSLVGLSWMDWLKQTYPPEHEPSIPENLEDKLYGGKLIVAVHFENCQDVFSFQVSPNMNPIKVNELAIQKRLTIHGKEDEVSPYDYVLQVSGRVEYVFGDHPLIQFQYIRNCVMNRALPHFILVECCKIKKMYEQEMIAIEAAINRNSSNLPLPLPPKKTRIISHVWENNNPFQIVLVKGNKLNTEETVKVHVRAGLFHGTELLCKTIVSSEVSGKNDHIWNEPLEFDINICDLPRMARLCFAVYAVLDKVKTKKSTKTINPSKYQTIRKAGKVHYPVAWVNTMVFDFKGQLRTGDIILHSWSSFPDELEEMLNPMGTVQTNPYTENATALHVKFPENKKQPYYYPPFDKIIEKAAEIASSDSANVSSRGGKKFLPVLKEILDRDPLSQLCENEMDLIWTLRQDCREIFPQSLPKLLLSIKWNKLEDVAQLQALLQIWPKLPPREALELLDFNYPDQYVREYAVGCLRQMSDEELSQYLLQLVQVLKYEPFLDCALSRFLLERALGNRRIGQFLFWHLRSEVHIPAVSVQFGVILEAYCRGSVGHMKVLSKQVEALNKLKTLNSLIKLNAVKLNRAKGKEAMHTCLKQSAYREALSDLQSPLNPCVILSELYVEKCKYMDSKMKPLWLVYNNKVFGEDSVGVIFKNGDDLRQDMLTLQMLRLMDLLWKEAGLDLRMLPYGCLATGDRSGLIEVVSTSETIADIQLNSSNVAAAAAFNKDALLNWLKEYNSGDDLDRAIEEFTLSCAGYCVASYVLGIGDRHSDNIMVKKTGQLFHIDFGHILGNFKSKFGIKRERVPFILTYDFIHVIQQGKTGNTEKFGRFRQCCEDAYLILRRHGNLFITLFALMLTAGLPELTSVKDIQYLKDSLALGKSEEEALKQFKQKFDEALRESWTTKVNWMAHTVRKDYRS

IC50 [1] [nM]	IC50 [2] [nM]	IC50 [3] [nM]	Molecule
> 1000	> 1000	10 to 1000	CC(c1oc(=O)c2ccccc2c1-c1ccc(CN2CCOCC2)s1)n1nc(-c2cc(O)cc(F)c2)c2c(N)ncnc21 (single isomer, unassigned) [Example 49b, 3-(1-(4-amino-3-(3-fluoro-5-hydroxyphenyl)-1H-pyrazolo[3,4-d]pyrimidin-1-yl)ethyl)-4-(5-(morpholinomethyl)thiophen-2-yl)-1H-isochromen-1-one hydrochloride]
> 1000	–	10 to 1000	CC(c1oc(=O)c2ccccc2c1-c1cccc(CCCN(C)C)c1)n1nc(-c2cc(O)cc(F)c2)c2c(N)ncnc21 (single isomer, unassigned) [Example 137a, 3-(1-(4-amino-3-(3-fluoro-5-hydroxyphenyl)-1H-pyrazolo[3,4-d]pyrimidin-1-yl)ethyl)-4-(3-(3-(dimethylamino)propyl)phenyl)-1H-isochromen-1-one single enantiomers]
> 1000	10 to 1000	10 to 1000	Nc1ncnc2c1ncn2Cc1oc(=O)c2ccccc2c1-c1ccccc1 [Example 1, 3-((6-Amino-9H-1-purin-9-yl)methyl)-4-phenyl-1H-isochromen-1-one]
> 1000	> 1000	10 to 1000	Nc1ncnc2c1ncn2Cc1oc(=O)c2ccccc2c1-c1cccc(F)c1 [Example 2, 3-((6-Amino-9H-purin-9-yl)methyl)-4-(3-fluorophenyl)-1H-isochromen-1-one]
> 1000	> 1000	10 to 1000	Nc1ncnc2c1ncn2Cc1oc(=O)c2ccccc2c1-c1ccccc1F [Example 3, 3-((6-Amino-9H-purin-9-yl)methyl)-4-(2-fluorophenyl)-1H-isochromen-1-one]
> 1000	> 1000	10 to 1000	Cc1cccc(-c2c(Cn3cnc4c(N)ncnc43)oc(=O)c3ccccc23)c1 [Example 4, 3-((6-Amino-9H-purin-9-yl)methyl)-4-m-tolyl-1H-isochromen-1-one]
10 to 1000	> 1000	10 to 1000	CC(c1oc(=O)c2ccccc2c1-c1cncs1)n1ncc2c(N)ncnc21 (centres unmarked) [Example 18, 3-(1-(4-Amino-1H-pyrazolo[3,4-d]pyrimidin-1-yl)ethyl)-4-(thiazol-5-yl)-1H-isochromen-1-one]
> 1000	10 to 1000	< 10	CCC(Nc1ncnc2[nH]cnc12)c1oc(=O)c2ccccc2c1-c1ccccc1 (centres unmarked) [Example 25, 3-(1-(9H-Purin-6-ylamino)propyl)-4-phenyl-1H-isochromen-1-one]
> 1000	10 to 1000	< 10	CC(Nc1ncnc2[nH]cnc12)c1oc(=O)c2ccccc2c1-c1ccc(CN2CCOCC2)s1 (centres unmarked) [Example 28, 3-(1-(9H-Purin-6-ylamino)ethyl)-4-(5-(morpholinomethyl)thiophen-2-yl)-1H-isochromen-1-one]
> 1000	10 to 1000	10 to 1000	O=c1oc(CNc2ncnc3[nH]cnc23)c(-c2ccccc2F)c2ccccc12 [Example 30, 3-((9H-Purin-6-ylamino)methyl)-4-(2-fluorophenyl)-1H-isochromen-1-one]
> 1000	10 to 1000	10 to 1000	CC(Nc1ncnc2[nH]cnc12)c1oc(=O)c2ccccc2c1-c1cccc(N(C)C)c1 (centres unmarked) [Example 34, 3-(1-(9H-Purin-6-ylamino)ethyl)-4-(3-(dimethylamino)phenyl)-1H-isochromen-1-one]
> 1000	10 to 1000	< 10	Nc1ncnc2c1c(-c1cc(O)cc(F)c1)nn2Cc1oc(=O)c2ccccc2c1-c1ccccc1 [Example 35, 3-((4-Amino-3-(3-fluoro-5-hydroxyphenyl)-1H-pyrazolo[3,4-d]pyrimidin-1-yl)methyl)-4-phenyl-1H-isochromen-1-one]
> 1000	10 to 1000	10 to 1000	Nc1ncnc2c1c(-c1ccc3[nH]ncc3c1)nn2Cc1oc(=O)c2ccccc2c1-c1ccccc1 [Example 36, 3-((4-Amino-3-(1H-indazol-5-yl)-1H-pyrazolo[3,4-d]pyrimidin-1-yl)methyl)-4-phenyl-1H-isochromen-1-one]
> 1000	10 to 1000	10 to 1000	Nc1ncnc2c1c(-c1ccc3cn[nH]c3c1)nn2Cc1oc(=O)c2ccccc2c1-c1ccccc1 [Example 38, 3-((4-Amino-3-(1H-indazol-6-yl)-1H-pyrazolo[3,4-d]pyrimidin-1-yl)methyl)-4-phenyl-1H-isochromen-1-one]
> 1000	10 to 1000	10 to 1000	Nc1ncnc2c1c(-c1ccc(O)c(F)c1)nn2Cc1oc(=O)c2ccccc2c1-c1ccccc1 [Example 39, 3-((4-Amino-3-(3-fluoro-4-hydroxyphenyl)-1H-pyrazolo[3,4-d]pyrimidin-1-yl)methyl)-4-phenyl-1H-isochromen-1-one]
10 to 1000	> 1000	< 10	CC(c1oc(=O)c2ccccc2c1-c1ccc(CN2CCCC2)s1)n1nc(-c2cc(O)cc(F)c2)c2c(N)ncnc21 (centres unmarked) [Example 73, 3-(1-(4-amino-3-(3-fluoro-5-hydroxyphenyl)-1H-pyrazolo[3,4-d]pyrimidin-1-yl)ethyl)-4-(5-(pyrrolidin-1-ylmethyl)thiophen-2-yl)-1H-isochromen-1-one hydrochloride]
> 1000	10 to 1000	< 10	CC(c1oc(=O)c2ccccc2c1-c1ccc(C(=O)O)s1)n1nc(-c2cc(O)cc(F)c2)c2c(N)ncnc21 (centres unmarked) [Example 78, 5-(3-(1-(4-amino-3-(3-fluoro-5-hydroxyphenyl)-1H-pyrazolo[3,4-d]pyrimidin-1-yl)ethyl)-1-oxo-1H-isochromen-4-yl)thiophene-2-carboxylic acid]
> 1000	10 to 1000	< 10	CC(Nc1ncnc(N)c1C#N)c1oc(=O)c2ccccc2c1-c1ccc(CN2CCOCC2)s1 (centres unmarked) [Example 82, 4-amino-6-((1-(4-(5-(morpholinomethyl)thiophen-2-yl)-1-oxo-1H-isochromen-3-yl)ethyl)amino)pyrimidine-5-carbonitrile hydrochloride]
10 to 1000	> 1000	10 to 1000	CC(c1oc(=O)c2ccccc2c1-c1ccccc1)n1nc(-c2cncc(N)c2)c2c(N)ncnc21 (centres unmarked) [Example 88, 3-(1-(4-amino-3-(5-aminopyridin-3-yl)-1H-pyrazolo[3,4-d]pyrimidin-1-yl)ethyl)-4-phenyl-1H-isochromen-1-one hydrochloride]
> 1000	> 1000	10 to 1000	CC(c1oc(=O)c2ccccc2c1-c1ccccc1)n1nc(C(F)(F)F)c2c(N)ncnc21 (centres unmarked) [Example 104, 3-(1-(4-amino-3-(trifluoromethyl)-1H-pyrazolo[3,4-d]pyrimidin-1-yl)ethyl)-4-phenyl-1H-isochromen-1-one]
10 to 1000	10 to 1000	< 10	Cc1nn(C(C)c2oc(=O)c3ccccc3c2-c2ccccc2)c2ncnc(N)c12 (centres unmarked) [Example 105, 3-(1-(4-amino-3-methyl-1H-pyrazolo[3,4-d]pyrimidin-1-yl)ethyl)-4-phenyl-1H-isochromen-1-one]
> 1000	10 to 1000	10 to 1000	CC(c1oc(=O)c2ccccc2c1-c1ccccc1)n1nc(-c2cccc3[nH]ncc23)c2c(N)ncnc21 (centres unmarked) [Example 112, 3-(1-(4-amino-3-(1H-indazol-4-yl)-1H-pyrazolo[3,4-d]pyrimidin-1-yl)ethyl)-4-phenyl-1H-isochromen-1-one]
–	> 1000	10 to 1000	CC(c1oc(=O)c2cc(Cl)ccc2c1-c1ccccc1)n1nc(-c2cc(O)cc(F)c2)c2c(N)ncnc21 (centres unmarked) [Example 163, 3-(1-(4-amino-3-(3-fluoro-5-hydroxyphenyl)-1H-pyrazolo[3,4-d]pyrimidin-1-yl)ethyl)-7-chloro-4-phenyl-1H-isochromen-1-one]

Molecule	IC50 [1] [nM]	IC50 [2] [nM]	IC50 [3] [nM]
4-(1-acetyl-1,2,3,6-tetrahydropyridin-4-yl)-3-(1-(4-amino-3-(3-fluoro-5-hydroxyphenyl)-1H-pyrazolo[3,4-d]pyrimidin-1-yl)ethyl)-1H-isochromen-1-one single enantiomer [Example 166b]	10 to 1000	–	–
